Some test systems named below: HOP-92 NSCLC; HT29 colon; K-562 leukemia; NCI-H23 lung; NCI-H460 lung; UACC-257 melanoma; UACC-62 melanoma; UO-31 renal; NCI-H226 lung; OVCAR-5 ovarian.
Common to all, as to assay: inhibition of tumour cell growth, NCI panel, 48 h

This is an account of results in PubChem BioAssay (NCI).

Molecules are shown by their SMILES.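 Five compound concentrations were applied to cells in 96-well plates for 48 hours; endpoints were derived by simple linear interpolation of the resulting dose-response curve. The concentration for 50% growth inhibition is given as GI50. TGI marks complete inhibition of growth.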

Regarding `O=C1C(Cl)N(c2ccccc2Cl)C1c1c[nH]c2ccccc12` (configuration not stated), the TGI with HOP-92 NSCLC, in the experiment with HT29 colon, with K-562 leukemia, with NCI-H23 lung, in the experiment on NCI-H460 lung and in the experiment with UACC-257 melanoma was greater than 100 µM in each case. Moreover, the TGI in the experiment on UACC-62 melanoma and in the experiment with UO-31 renal was greater than 100 µM in each case.

As for `Oc1ccc(C(=C(Br)c2ccccc2)c2ccc(O)cc2)cc1`, the TGI in the experiment with HOP-92 NSCLC worked out at 22.5 µM; in the experiment with HT29 colon, 4.78 µM; in the experiment with K-562 leukemia, 9.07 µM; in the experiment on NCI-H226 lung it was 33 µM; with NCI-H23 lung, 23.7 µM; with NCI-H460 lung, 31.6 µM. In addition, the TGI was found to be 31.2 µM with OVCAR-5 ovarian, 25.2 µM in the experiment with UACC-257 melanoma, 23.1 µM in the experiment with UACC-62 melanoma and 19.7 µM in the experiment on UO-31 renal.

As to `C=C(C#N)C(=O)OCC(CC)CC.C=C(C#N)C(=O)OCC(CC)CC.CS(C)=O.CS(C)=O.Nc1c(N=Nc2ccc(-c3ccc(N=Nc4cc(S(=O)(=O)[O-])c5ccccc5c4N)cc3)cc2)cc(S(=O)(=O)[O-])c2ccccc12.[Pt+2]`, the GI50 in the experiment on HOP-92 NSCLC is 19.6 µM; in the experiment with HT29 colon, 27.2 µM; in the experiment with K-562 leukemia, 32.6 µM; in the experiment on NCI-H226 lung, 36.8 µM; in the experiment on NCI-H23 lung, 40.7 µM; in the experiment on NCI-H460 lung, 44.4 µM. The GI50 was greater than 78.4 µM with OVCAR-5 ovarian, 17.4 µM in the experiment on UACC-257 melanoma, 36.8 µM in the experiment with UACC-62 melanoma and greater than 100 µM with UO-31 renal. Also, the TGI is 45.4 µM in the experiment with HOP-92 NSCLC; greater than 69.7 µM in the experiment on HT29 colon; greater than 100 µM in the experiment on K-562 leukemia; greater than 74.1 µM in the experiment with NCI-H226 lung; greater than 100 µM in the experiment on NCI-H23 lung; greater than 100 µM in the experiment on NCI-H460 lung. In addition, the TGI with OVCAR-5 ovarian was greater than 100 µM; with UACC-257 melanoma it was 31.8 µM; in the experiment with UACC-62 melanoma it was 97.4 µM; with UO-31 renal, greater than 100 µM.

`COc1ccc2nc3cc(Cl)ccc3c(NC(C)CCCN(CCCl)CCCl)c2c1` (configuration not stated): the TGI stood at 3.62 µM with HOP-92 NSCLC; 2.81 µM with HT29 colon; 2.3 µM in the experiment on K-562 leukemia; 3.44 µM with NCI-H226 lung; 2.89 µM in the experiment with NCI-H23 lung; 1.58 µM with NCI-H460 lung. Also, the TGI in the experiment with OVCAR-5 ovarian turned out to be 8 µM; in the experiment on UACC-257 melanoma, 14.9 µM; in the experiment with UACC-62 melanoma, 2.41 µM; with UO-31 renal it was 11 µM.

`Cc1ccc(S(=O)(=O)N(CC(O)COc2ccccc2)c2c(F)cccc2F)cc1` (configuration not stated): the TGI in the experiment with HOP-92 NSCLC is 8.48 µM; with HT29 colon, 36.3 µM; with K-562 leukemia it was greater than 100 µM; in the experiment with NCI-H226 lung, 71.1 µM; in the experiment with NCI-H23 lung it was 44.8 µM; in the experiment with NCI-H460 lung it was 31.6 µM. The TGI with OVCAR-5 ovarian is greater than 100 µM; in the experiment with UACC-257 melanoma it was 44.5 µM; in the experiment with UACC-62 melanoma, 36.3 µM; in the experiment on UO-31 renal, 38.7 µM.

Consider `COC(=O)c1cc2c(cc1Cl)Sc1nnc(Nc3ccccc3)n1S2(=O)=O`, for which the TGI in the experiment on HOP-92 NSCLC is 3.75 µM; in the experiment with HT29 colon, 5.17 µM; in the experiment with K-562 leukemia it was greater than 42 µM; with NCI-H226 lung it was 14.8 µM; with NCI-H23 lung it was 6.71 µM; with NCI-H460 lung it was 23.8 µM. Also, the TGI stood at 21.4 µM with OVCAR-5 ovarian, 21.7 µM in the experiment with UACC-257 melanoma, 14.6 µM with UACC-62 melanoma and 7.56 µM in the experiment on UO-31 renal.

In the case of `O=C1c2cc(O)c(O)cc2O[C@H](c2ccc(O)c(O)c2)[C@H]1O`, the TGI in the experiment on HOP-92 NSCLC, in the experiment with HT29 colon, with K-562 leukemia, with NCI-H226 lung, with NCI-H23 lung and with NCI-H460 lung was greater than 100 µM throughout. The TGI with OVCAR-5 ovarian, in the experiment with UACC-257 melanoma, in the experiment on UACC-62 melanoma and in the experiment with UO-31 renal was greater than 100 µM each time.

In the case of `O=C1c2cc3c(cc2-c2c1c1ccc(Cl)cc1c(=O)n2C[C@H](O)CO)OCO3`, the GI50 in the experiment on HT29 colon is 0.0348 µM; in the experiment on K-562 leukemia, 0.0457 µM; in the experiment on NCI-H226 lung it was 0.0296 µM; with NCI-H23 lung it was 0.0366 µM; with OVCAR-5 ovarian it was 0.119 µM; with UACC-257 melanoma, 0.13 µM. The GI50 is 0.0122 µM with UACC-62 melanoma and 0.0348 µM in the experiment with UO-31 renal. Besides, the TGI in the experiment on HT29 colon is greater than 100 µM; in the experiment on K-562 leukemia, greater than 100 µM; with NCI-H226 lung, 0.165 µM; with NCI-H23 lung it was 0.714 µM; with OVCAR-5 ovarian, 1.15 µM; in the experiment with UACC-257 melanoma, 0.604 µM. Further, the TGI came out at 0.122 µM in the experiment on UACC-62 melanoma and 0.19 µM in the experiment with UO-31 renal.

Turning to `O=C1c2ccccc2C(=O)c2[nH]cnc21`, the TGI is greater than 100 µM in the experiment with HT29 colon; greater than 100 µM with K-562 leukemia; 93.3 µM in the experiment on NCI-H226 lung; greater than 100 µM in the experiment on NCI-H23 lung; greater than 100 µM in the experiment on NCI-H460 lung; 54.2 µM in the experiment on UACC-257 melanoma. The TGI is 82.2 µM in the experiment on UACC-62 melanoma and greater than 100 µM in the experiment on UO-31 renal.

For the compound `Cc1ccc(S(=O)(=O)OC2CC(C(C)(C)C)CCC2c2ccccc2)cc1` (configuration not stated), the TGI with HOP-92 NSCLC, in the experiment on HT29 colon, in the experiment on K-562 leukemia, with NCI-H226 lung, with NCI-H23 lung and in the experiment with NCI-H460 lung was greater than 100 µM each time. Further, the TGI with OVCAR-5 ovarian, in the experiment on UACC-257 melanoma, with UACC-62 melanoma and in the experiment with UO-31 renal was greater than 100 µM in each case.

Regarding `CCOC(=O)c1c2c(n(-c3ccc(C)cc3)c1C)-c1ccccc1C(=O)C2(C(=O)OCC)C(=O)OCC`, the TGI in the experiment with HOP-92 NSCLC is 88.6 µM; with HT29 colon it was greater than 84.3 µM; in the experiment with K-562 leukemia, greater than 59.4 µM; in the experiment with NCI-H226 lung, greater than 94.7 µM; in the experiment with NCI-H23 lung, greater than 100 µM; in the experiment on NCI-H460 lung, 98.5 µM. For the same compound, the TGI in the experiment on OVCAR-5 ovarian was greater than 100 µM; in the experiment on UACC-257 melanoma, greater than 100 µM; with UACC-62 melanoma, greater than 91.8 µM; in the experiment with UO-31 renal it was greater than 100 µM.

Consider `CN1C(=O)CC(=O)N1/C(=C/c1ccccc1)c1ccccc1`, for which the TGI in the experiment on HOP-92 NSCLC, with HT29 colon, with K-562 leukemia, in the experiment with NCI-H226 lung, with NCI-H23 lung and in the experiment with NCI-H460 lung was greater than 100 µM in each case. Further, the TGI was greater than 100 µM in the experiment with OVCAR-5 ovarian, greater than 100 µM in the experiment on UACC-257 melanoma, greater than 100 µM in the experiment on UACC-62 melanoma and 32 µM in the experiment on UO-31 renal.

On to `CCN(CC)CCNc1ccc2ncn3c4ccc(O)cc4c(=O)c1c23`, for which the TGI in the experiment with HOP-92 NSCLC was found to be 12.8 µM; in the experiment on HT29 colon, 7.06 µM; in the experiment with K-562 leukemia it was 34.4 µM; in the experiment on NCI-H226 lung it was 1.33 µM; in the experiment on NCI-H23 lung it was 13.8 µM; in the experiment with NCI-H460 lung, 12.2 µM. The TGI stood at 17.4 µM in the experiment on OVCAR-5 ovarian, 21.2 µM in the experiment on UACC-257 melanoma, 11.8 µM in the experiment on UACC-62 melanoma and 6.94 µM in the experiment with UO-31 renal.

Take `C=CCNC(=O)C(C)C1CCC2(C)C=CC(=O)C(C)=C2C1O` (configuration not stated): the TGI with HOP-92 NSCLC, with HT29 colon, with K-562 leukemia, with NCI-H226 lung, in the experiment on NCI-H23 lung and in the experiment on NCI-H460 lung was greater than 100 µM each time. The TGI with OVCAR-5 ovarian, in the experiment with UACC-257 melanoma, in the experiment on UACC-62 melanoma and in the experiment on UO-31 renal was greater than 100 µM in each case.

Consider `CSCCC(C(=O)O)N(C)C` (configuration not stated), for which the TGI in the experiment on HOP-92 NSCLC, with HT29 colon, in the experiment with K-562 leukemia, in the experiment on NCI-H226 lung, with NCI-H23 lung and with NCI-H460 lung was greater than 100 µM throughout. The TGI with OVCAR-5 ovarian, with UACC-257 melanoma, with UACC-62 melanoma and in the experiment with UO-31 renal was greater than 100 µM in each case.

Regarding `O=C(CSCC(=O)N/N=C/c1cccc(O)c1)N/N=C/c1cccc(O)c1`, the TGI with HOP-92 NSCLC, with HT29 colon, in the experiment with K-562 leukemia, with NCI-H226 lung, in the experiment on NCI-H23 lung and in the experiment on NCI-H460 lung was greater than 100 µM throughout. For the same compound, the TGI in the experiment with OVCAR-5 ovarian, in the experiment on UACC-257 melanoma, in the experiment with UACC-62 melanoma and with UO-31 renal was greater than 100 µM in each case.
